From patent publication US11254671B2, “Chemical compounds” (GLAXOSMITHKLINE INTELLECTUAL PROPERTY DEVELOPMENT LIMITED, priority 2017, dated 2022)

These molecules were tested on phosphorylated Akt at serine 473 (pAKTs473) in primary human lung fibroblasts (assay: Highthroughput phosphorylated Akt (Ser473) in vitro immunoassay (MSD)). Details: Fibroblast, 1 h compound, PDGF-BB 10 ng/ml for 10 min, mean of multiple experiments, read-out: mean pIC50, inhibition of pAkt (Ser473) (converted).
Format: cell-based
From the text: Highthroughput Phosphorylated Akt (Ser473) In Vitro Immunoassay
Immunoassay to measure effect of test compounds on phosphorylated Akt at serine 473 (pAKTs473) in primary human lung fibroblasts (Lonza Group Ltd, Basel, Switzerland, Catalogue No. CC-2512) using the MesoScale Discovery (MSD) platform to quantify levels of total Akt and pAKTser473.
Human lung fibroblasts were routinely maintained in fibroblast basal medium supplemented with 2% foetal bovine serum (FBS), 0.1% human fibroblast growth factor (FGF)-B, 0.1% insulin, 0.1% GA-100 (Lonza Group Ltd, Basel, Switzerland, Catalogue No. CC-3132) at 37° C. in 5% CO2 according to the manufacturer's protocol.
For the assay, cells were harvested using Trypsin/EDTA, (Lonza Group Ltd, Basel, Switzerland, Catalogue No. CC-5012), at working concentration of 0.025%, resuspended to give 3×10^5 cells/ml and 50 ul/well seeded into 384-well plates (Greiner Group, Kremsmunster, Austria, Catalogue No. 781091) in media containing 0.4% FBS and incubated o/n at 37° C. in 5% CO2.
Test compounds were dissolved in 100% DMSO to give 10 mM stock solutions and serially diluted to generate an 11-point concentration response curve. Compound were further diluted by […] into 384-well V-bottom polypropylene plates (Greiner Group, Kremsmunster, Austria, Catalogue No. 781280) with media containing 0.4% FBS to give 50 μM top compound concentration in 0.5% DMSO.
Compounds were transferred to 384-well plates contacting cells (0.1% DMSO final) and incubated for 1 h at 37° C. in 5% CO2, prior to stimulation with platelet-derived growth factor (PDGF)-BB (R&D Systems, Catalogue No. 220-BB) at 10 ng/ml (final) for 10 min at RT. Cell assay plates were incubated on ice and treated with lysis buffer (Cell Signalling Technology, Catalogue No. 9806) containing protease and phosphatase inhibitors (Thermo Scientific, Catalogue No. 78444) followed by shaking for 30 min at 4° C.
MSD plates (MSD, MA6000 384-well GAR plate, Catalogue No. L21RA-2) were blocked with blocking buffer containing TBS (MSD, Cat. No. R61TX-1) with 0.5% bovine serum albumin (BSA) (Sigma Aldrich, Cat. No. A7906), 0.1% tween-20 (Sigma Aldrich, Catalogue No. P2287) and coated with rabbit-anti-human pAkt (s473) ab (Cell Signalling Technology, Catalogue No. CST #4060) at RT with shaking, followed by washing (×3) with 1×TBS wash reagent containing 0.1% Tween-20. Cell lysates (30 ul) were added and MSD plates centrifuged at 1000 rpm at 4° C. o/n.
Plates were washed with 1×TBS wash buffer (×3), prior to addition of mouse-anti-human-total Akt ab (1 mg/ml) (Upstate (Milipore), Catalogue No. 05-591) in blocking buffer and shaken at RT for 1 h. After washing with 1×TBS wash buffer (×3), plates were incubated with goat-anti-mouse SULFO-TAG detection ab (MSD, Catalogue No. R32AC-1) (1:500 in blocking buffer) for 1 h at RT. Plates were washed with 1×TBS (×3) and read buffer (2×) (MSD, Catalogue No. R92TC-1) added before detecting electrochemiluminescence (MSD Sector Imager 6000).
Data analysis was performed by determining % inhibition values for test compounds relative to the minimum (+PDGF-BB stimulation) and maximum responses (no PDGF-BB stimulation) with non-linear regression analysis to determine IC50 values for test compounds.
Work on CNCc1cc2nc(-c3cc(C(C)(C)S(C)(=O)=O)cc(N4CCOC[C@@H]4C)n3)ccc2[nH]1 [Example 2, (S)—N-methyl-1-(5-(6-(3-methylmorpholino)-4-(2-(methylsulfonyl)propan-2-yl)pyridin-2-yl)-1H-pyrrolo[3,2-b]pyridin-2-yl)methanamine] yielded an IC50 of 3.16 to 316 nM. With CNCc1cc2nc(-c3cc(C(C)(C)S(C)(=O)=O)cc(N4[C@@H]5CC[C@H]4COC5)n3)ccc2[nH]1 [Example 3, 1-(5-(6-((1R,5S)-3-oxa-8-azabicyclo[3.2.1]octan-8-yl)-4-(2-(methylsulfonyl)propan-2-yl)pyridin-2-yl)-1H-pyrrolo[3,2-b]pyridin-2-yl)-N-methylmethanamine] the IC50 was 3.16 to 316 nM. In the case of CNCc1cc2nc(-c3cc(C(C)(C)S(C)(=O)=O)cc(N4CC5CCC(C4)O5)n3)ccc2[nH]1 [Example 4, 1-(5-(6-(8-oxa-3-azabicyclo[3.2.1]octan-3-yl)-4-(2-(methylsulfonyl)propan-2-yl)pyridin-2-yl)-1H-pyrrolo[3,2-b]pyridin-2-yl)-N-methylmethanamine], the IC50 is reported as 3.16 to 316 nM. In the case of CNCc1cc2nc(-c3cc(C(C)(C)S(C)(=O)=O)cc(N4C5CCCC4COC5)n3)ccc2[nH]1 [Example 5, 1-(5-(6-(3-oxa-9-azabicyclo[3.3.1]nonan-9-yl)-4-(2-(methylsulfonyl)propan-2-yl)pyridin-2-yl)-1H-pyrrolo[3,2-b]pyridin-2-yl)-N-methylmethanamine], the IC50 is reported as 3.16 to 316 nM. In the case of CNCc1cc2nc(-c3cc(CS(C)(=O)=O)cc(N4CCOC[C@@H]4C)n3)ccc2[nH]1 [Example 6, (S)—N-methyl-1-(5-(6-(3-methylmorpholino)-4-((methylsulfonyl)methyl)pyridin-2-yl)-1H-pyrrolo[3,2-b]pyridin-2-yl)methanamine], the IC50 is reported as 3.16 to 316 nM. CCS(=O)(=O)C(C)(C)c1cc(-c2ccc3[nH]c(CNC)cc3n2)nc(N2CCOC[C@@H]2C)c1 [Example 7, (S)-1-(5-(4-(2-(ethylsulfonyl)propan-2-yl)-6-(3-methylmorpholino)pyridin-2-yl)-1H-pyrrolo[3,2-b]pyridin-2-yl)-N-methylmethanamine] was tested, and the IC50 was 3.16 to 316 nM. CC[C@H]1COCCN1c1cc(C(C)(C)S(=O)(=O)C2CC2)cc(-c2ccc3[nH]c(CNC)cc3n2)n1 [Example 9, (S)-1-(5-(4-(2-(cyclopropylsulfonyl)propan-2-yl)-6-(3-ethylmorpholino)pyridin-2-yl)-1H-pyrrolo[3,2-b]pyridin-2-yl)-N-methylmethanamine] was tested, and the IC50 was 3.16 to 316 nM. CC[C@H]1COCCN1c1cc(CS(=O)(=O)C2CC2)cc(-c2ccc3[nH]c(CNC)cc3n2)n1 [Example 10, (S)-1-(5-(4-((cyclopropylsulfonyl)methyl)-6-(3-ethylmorpholino)pyridin-2-yl)-1H-pyrrolo[3,2-b]pyridin-2-yl)-N-methylmethanamine] was tested, and the IC50 was 2.51 to 10 nM. CC[C@H]1COCCN1c1cc(C2(S(=O)(=O)C3CC3)CC2)cc(-c2ccc3[nH]c(CNC)cc3n2)n1 [Example 11, (S)-1-(5-(4-(1-(cyclopropylsulfonyl)cyclopropyl)-6-(3-ethylmorpholino)pyridin-2-yl)-1H-pyrrolo[3,2-b]pyridin-2-yl)-N-methylmethanamine] was tested, and the IC50 was 3.16 to 316 nM. With CNCc1cc2nc(-c3cc(C(F)(F)S(C)(=O)=O)cc(N4CCOC[C@@H]4C)n3)ccc2[nH]1 [Example 12, (S)-1-(5-(4-(difluoro(methylsulfonyl)methyl)-6-(3-methylmorpholino)pyridin-2-yl)-1H-pyrrolo[3,2-b]pyridin-2-yl)-N-methylmethanamine] the IC50 was 3.16 to 316 nM. CC[C@H]1COCCN1c1cc(CS(C)(=O)=O)cc(-c2ccc3[nH]c(CNC)cc3n2)n1 [Example 13, (S)-1-(5-(6-(3-ethylmorpholino)-4-((methylsulfonyl)methyl)pyridin-2-yl)-1H-pyrrolo[3,2-b]pyridin-2-yl)-N-methylmethanamine] was tested, and the IC50 was 3.16 to 316 nM. In the case of CC[C@H]1COCCN1c1cc(CS(=O)(=O)N(C)C)cc(-c2ccc3[nH]c(CNC)cc3n2)n1 [Example 17, (S)-1-(2-(3-ethylmorpholino)-6-(2-((methylamino)methyl)-1H-pyrrolo[3,2-b]pyridin-5-yl)pyridin-4-yl)-N,N-dimethylmethanesulfonamide], the IC50 is reported as 2.51 to 10 nM. For CC[C@H]1COCCN1c1cc(C2(S(C)(=O)=O)CC2)cc(-c2ccc3[nH]c(CNC)cc3n2)n1 [Example 19, [(5-{6-[(3S)-3-ethylmorpholin-4-yl]-4-(1-methanesulfonylcyclopropyl)pyridin-2-yl}-1H-pyrrolo[3,2-b]pyridin-2-yl)methyl](methyl)amine], the IC50 was 2.51 to 10 nM. With CNCc1cc2nc(-c3cc(C4(S(C)(=O)=O)CC4)cc(N4CCOC[C@@H]4C)n3)ccc2[nH]1 [Example 20, ({5-[4-(1-methanesulfonylcyclopropyl)-6-[(3S)-3-methylmorpholin-4-yl]pyridin-2-yl]-1H-pyrrolo[3,2-b]pyridin-2-yl}methyl)(methyl)amine] the IC50 was 3.16 to 316 nM. In the case of CC[C@H]1COCCN1c1cc(C(C)(C)S(C)(=O)=O)cc(-c2ccc3[nH]c(CN)cc3n2)n1 [Example 21, 1-(5-{6-[(3S)-3-ethylmorpholin-4-yl]-4-(2-methanesulfonylpropan-2-yl)pyridin-2-yl}-1H-pyrrolo[3,2-b]pyridin-2-yl)methanamine], the IC50 is reported as 3.16 to 316 nM. For CC[C@H]1COCCN1c1cc(C2(S(C)(=O)=O)CCOCC2)cc(-c2ccc3[nH]c(CN)cc3n2)n1 [Example 23, 1-(5-{6-[(3S)-3-ethylmorpholin-4-yl]-4-(4-methanesulfonyloxan-4-yl)pyridin-2-yl}-1H-pyrrolo[3,2-b]pyridin-2-yl)methanamine], the IC50 was 2.51 to 10 nM. Molecule CNCc1cc2nc(-c3cc(CS(C)(=O)=O)cc(N4CC5CCC(C4)O5)n3)ccc2[nH]1 [Example 25, ({5-[4-(methanesulfonylmethyl)-6-{8-oxa-3-azabicyclo[3.2.1]octan-3-yl}pyridin-2-yl]-1H-pyrrolo[3,2-b]pyridin-2-yl}methyl)(methyl)amine] has an IC50 of 3.16 to 316 nM. For CC[C@H]1COCCN1c1cc(C(C)(C)S(N)(=O)=O)cc(-c2ccc3[nH]c(CNC)cc3n2)n1 [Example 28, 2-{2-[(3S)-3-ethylmorpholin-4-yl]-6-{2-[(methylamino)methyl]-1H-pyrrolo[3,2-b]pyridin-5-yl}pyridin-4-yl}propane-2-sulfonamide], the IC50 was 3.16 to 316 nM. CC[C@H]1COCCN1c1cc(CS(=O)(=O)NC)cc(-c2ccc3[nH]c(CNC)cc3n2)n1 [Example 30, 1-{2-[(3S)-3-ethylmorpholin-4-yl]-6-{2-[(methylamino)methyl]-1H-pyrrolo[3,2-b]pyridin-5-yl}pyridin-4-yl}-N-methylmethanesulfonamide] gave an IC50 of 3.16 to 316 nM. In the case of CC[C@H]1COCCN1c1cc(C2(S(=O)(=O)N(C)C)CCOCC2)cc(-c2ccc3[nH]c(CNC)cc3n2)n1 [Example 31, 4-{2-[(3S)-3-ethylmorpholin-4-yl]-6-{2-[(methylamino)methyl]-1H-pyrrolo[3,2-b]pyridin-5-yl}pyridin-4-yl}-N,N-dimethyloxane-4-sulfonamide], the IC50 is reported as 2.51 to 10 nM. For CC[C@H]1COCCN1c1cc(C(C)(C)S(C)(=O)=O)cc(-c2ccc3[nH]c(CO)cc3n2)n1 [Example 32], the IC50 was 3.16 to 316 nM. CC[C@H]1COCCN1c1cc(C2(S(C)(=O)=O)CCOCC2)cc(-c2ccc3[nH]c(CO)cc3n2)n1 [Example 33, (5-{6-[(3S)-3-ethylmorpholin-4-yl]-4-(4-methanesulfonyloxan-4-yl)pyridin-2-yl}-1H-pyrrolo[3,2-b]pyridin-2-yl)methanol] gave an IC50 of 2.51 to 10 nM. CC[C@H]1COCCN1c1cc(CS(C)(=O)=O)cc(-c2ccc3[nH]c(CO)cc3n2)n1 [Example 34, (5-{6-[(3S)-3-ethylmorpholin-4-yl]-4-(methanesulfonylmethyl)pyridin-2-yl}-1H-pyrrolo[3,2-b]pyridin-2-yl)methanol] was tested, and the IC50 was 2.51 to 10 nM.
